Experiments:
[1] = target: T1, PFA0210c (full-length, FL) (Plasmodium falciparum, UniProt Q8I298); test: […]-phosphatidylcholine transfer from donor to acceptor vesicles; format: biochemical; conditions: pH 7.4, 37 °C, 30 min; 25 μg/ml protein; labelled compound (trace in phosphatidylcholine vesicles)
T1 construct: gene PF3D7_0104200; residues 144-466 (N-terminal region omitted, START domain plus whole C-terminal extension); N-terminal MBP and C-terminal His6 kept; E. coli BL21(DE3); monomeric SEC fractions; strain only from the locus tag and parasite line
T1 sequence (Q8I298 144-466): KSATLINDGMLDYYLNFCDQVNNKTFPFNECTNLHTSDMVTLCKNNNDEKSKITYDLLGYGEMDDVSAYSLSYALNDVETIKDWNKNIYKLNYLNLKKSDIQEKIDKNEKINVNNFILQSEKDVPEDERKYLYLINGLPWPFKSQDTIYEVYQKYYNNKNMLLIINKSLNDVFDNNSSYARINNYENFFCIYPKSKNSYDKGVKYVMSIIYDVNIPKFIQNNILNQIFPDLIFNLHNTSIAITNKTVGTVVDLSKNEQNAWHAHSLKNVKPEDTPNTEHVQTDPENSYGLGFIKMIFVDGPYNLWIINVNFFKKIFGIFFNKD

[2] = target: T2, truncated PFA0210c (Trunc.) (Plasmodium falciparum, UniProt Q8I298); test: as above; format: biochemical; conditions: pH 7.4, 37 °C, 30 min; 25 μg/ml protein; labelled compound (trace in phosphatidylcholine vesicles)
T2 construct: gene PF3D7_0104200; residues 144-418 (C-terminal 48 residues removed); N-terminal MBP and C-terminal His6 kept; E. coli BL21(DE3)

Which results are given for `CCCCCCCCCCCCCCCC(=O)OC[C@H](COP(=O)([O-])OCC[N+](C)(C)C)OC(=O)CCCCCCCCCCCCCCC` [L-α-dipalmitoyl-phosphatidylcholine]?
phospholipid transfer activity [1]: measures the transfer of radiolabeled phosphatidylcholine from a small population of donor vesicles; phospholipid transfer activity [2]: All the truncated proteins showed higher phospholipid transfer activity than the full-length protein
